According to ChEMBL document CHEMBL5608177, “Antitumor activity and transcriptome sequencing (RNA-seq) analyses of hepatocellular carcinoma cells in response to exposure triterpene-nucleoside conjugates” (Eur J Med Chem, 2024):
Active and inactive are the calls of the source. The rule behind the calls is not given here.

What was measured:
SW-620 = assay: Antiproliferative activity against human SW620 cells assessed as inhibition of cell growth incubated for 48 hrs by CCK-8 reagent based spectrophotometric analysis; assay type: functional; settings: SW-620, 48 h
A549 = assay: Antiproliferative activity against human A549 cells assessed as inhibition of cell growth incubated for 48 hrs by CCK-8 reagent based spectrophotometric analysis; assay type: functional; settings: A549, 48 h
HepG2 = assay: Antiproliferative activity against human HepG2 cells assessed as inhibition of cell growth incubated for 48 hrs by CCK-8 reagent based spectrophotometric analysis; assay type: functional; settings: HepG2, 48 h
KYSE-150 cell line = assay: Antiproliferative activity against human KYSE-150 cell line assessed as inhibition of cell growth incubated for 48 hrs by CCK-8 reagent based spectrophotometric analysis; assay type: functional; settings: KYSE-150, 48 h
SMMC-7721 [1] = assay: Antiproliferative activity against human SMMC-7721 cells assessed as inhibition of cell growth incubated for 48 hrs by CCK-8 reagent based spectrophotometric analysis; assay type: functional; settings: SMMC-7721, 48 h
PC-3 = assay: Antiproliferative activity against human PC-3 cells assessed as inhibition of cell growth incubated for 48 hrs by CCK-8 reagent based spectrophotometric analysis; assay type: functional; settings: PC-3, 48 h
HeLa = assay: Antiproliferative activity against human HeLa cells assessed as inhibition of cell growth incubated for 48 hrs by CCK-8 reagent based spectrophotometric analysis; assay type: functional
MCF7 = assay: Antiproliferative activity against human MCF7 cells assessed as inhibition of cell growth incubated for 48 hrs by CCK-8 reagent based spectrophotometric analysis; assay type: functional; settings: MCF7, 48 h
SMMC-7721 [2] = assay: Antitumor activity against human SMMC-7721 cells xenografted in BALB/c mouse assessed as inhibition of tumor growth at 25 mg/kg,ip administrated 3 times weekly for 3 weeks relative to control; assay type: functional; design: scale not given: the % may be the effect or the level left
SMMC-7721 [3] = assay: Antitumor activity against human SMMC-7721 cells xenografted in BALB/c mouse assessed as reduction in tumor weight at 25 mg/kg,ip administrated 3 times weekly for 3 weeks (reference value: 0.573 +/- 0.137 g); assay type: functional
SMMC-7721 [4] = assay: Antitumor activity against human SMMC-7721 cells xenografted in BALB/c mouse assessed as reduction in tumor growth at 25 mg/kg,ip administrated 3 times weekly for 3 weeks; assay type: functional, organism-based
SMMC-7721 [5] = assay: Antitumor activity against human SMMC-7721 cells xenografted in BALB/c mouse assessed as reduction in tumor weight at 25 mg/kg,ip administrated 3 times weekly for 3 weeks; assay type: functional, organism-based
[6] = Aqueous solubility of the compound in […] by HPLC analysis; assay type: physicochemical

| SMILES | IC50 (SW-620) [µM] | IC50 (A549) [µM] | IC50 (HepG2) [µM] | IC50 (SMMC-7721 [1]) [µM] | IC50 (PC-3) [µM] | IC50 (HeLa) [µM] | IC50 (MCF7) [µM] | IC50 (KYSE-150 cell line) [µM] | Activity (SMMC-7721 [2]) [%] | Activity (SMMC-7721 [3]) [g] | Activity (SMMC-7721 [4]) | Activity (SMMC-7721 [5]) | solubility [6] [µM] |
| --- | --- | --- | --- | --- | --- | --- | --- | --- | --- | --- | --- | --- | --- |
| C=C(C)[C@@H]1CC[C@]2(C(=O)O)CC[C@]3(C)[C@H](CC[C@@H]4[C@@]5(C)C[C@@H](Cc6cn([C@]7(CO)O[C@@H](n8ccc(O)nc8=O)[C@H](O)[C@@H]7O)nn6)[C@H](O)C(C)(C)[C@@H]5CC[C@]43C)[C@@H]12 | > 100 | > 100 | > 100 | > 100 | > 100 | > 100 | > 100 | > 100 |  |  |  |  |  |
| CC(=O)O[C@H]1C(=O)[C@@]2(C)[C@H]([C@H](OC(=O)c3ccccc3)[C@]3(O)C[C@H](OC(=O)[C@H](O)[C@@H](NC(=O)c4ccccc4)c4ccccc4)C(C)=C1C3(C)C)[C@]1(OC(C)=O)CO[C@@H]1C[C@@H]2O [PACLITAXEL] |  |  |  |  |  |  |  |  | 61.6 | 0.22 | inactive | inactive |  |
| C=C(C)[C@@H]1CC[C@]2(C(=O)O)CC[C@]3(C)[C@H](CC[C@@H]4[C@@]5(C)C[C@@H](Cc6cn([C@]7(CO)O[C@@H](n8ccc(N)nc8=O)[C@H](O)[C@@H]7O)nn6)[C@H](O)C(C)(C)[C@@H]5CC[C@]43C)[C@@H]12 | 28.1 | > 100 | 72.7 | 17 | 86.2 | 15.3 | 62 | 42.4 |  |  |  |  |  |
| Cc1cn([C@H]2C[C@H](N=[N+]=[N-])[C@@H](CO)O2)c(=O)[nH]c1=O [ZIDOVUDINE] | > 100 | 20.7 | > 100 | > 100 | > 100 | > 100 | > 100 | > 100 |  |  |  |  |  |
| C=C(C)[C@@H]1CC[C@]2(C(=O)O)CC[C@]3(C)[C@H](CC[C@@H]4[C@@]5(C)CC[C@H](O)C(C)(C)[C@@H]5CC[C@]43C)[C@@H]12 [BETULINIC ACID] | 54.3 | 69.8 | 40 | 43.6 | > 100 | 31.3 | 54.8 | 23.9 |  |  |  |  | < 0.11 |
| C=C(C)[C@@H]1CC[C@]2(C(=O)OC)CC[C@]3(C)[C@H](CC[C@@H]4[C@@]5(C)C[C@@H](Cc6cn([C@]7(CO)O[C@@H](n8ccc(N)nc8=O)[C@H](O)[C@@H]7O)nn6)[C@H](O)C(C)(C)[C@@H]5CC[C@]43C)[C@@H]12 | 48.9 | > 100 | 85.7 | 67.3 | > 100 | 46.2 | 87.6 | 20.7 |  |  |  |  |  |
| C=C(C)[C@@H]1CC[C@]2(C(=O)OC)CC[C@]3(C)[C@H](CC[C@@H]4[C@@]5(C)C[C@@H](Cc6cn([C@]7(CO)O[C@@H](n8ccc(O)nc8=O)[C@H](O)[C@@H]7O)nn6)C(=O)C(C)(C)[C@@H]5CC[C@]43C)[C@@H]12 | 19.1 | 70.8 | 62.9 | 40.5 | 45.5 | 27.9 | 55.3 | 36.4 |  |  |  |  |  |
| C=C(C)[C@@H]1CC[C@]2(C(=O)OC)CC[C@]3(C)[C@H](CC[C@@H]4[C@@]5(C)C[C@@H](Cc6cn([C@]7(CO)O[C@@H](n8ccc(O)nc8=O)[C@@H](F)[C@@H]7O)nn6)[C@H](O)C(C)(C)[C@@H]5CC[C@]43C)[C@@H]12 | 15.2 | 36.4 | 37.5 | 24.5 | 23.5 | 15.1 | 23.3 | 10.7 |  |  |  |  |  |
| C=C(C)[C@@H]1CC[C@]2(C(=O)OC)CC[C@]3(C)[C@H](CC[C@@H]4[C@@]5(C)C[C@@H](Cc6cn([C@]7(CO)O[C@@H](n8ccc(N)nc8=O)[C@@H](F)[C@@H]7O)nn6)[C@H](O)C(C)(C)[C@@H]5CC[C@]43C)[C@@H]12 | 18 | > 100 | 55.8 | 70.2 | > 100 | 24.1 | 70.2 | 29.3 |  |  |  |  |  |
| C=C(C)[C@@H]1CC[C@]2(C(=O)OC)CC[C@]3(C)[C@H](CC[C@@H]4[C@@]5(C)C[C@@H](Cc6cn([C@]7(CO)O[C@@H](n8ccc(O)nc8=O)[C@H](O)[C@@H]7O)nn6)[C@H](O)C(C)(C)[C@@H]5CC[C@]43C)[C@@H]12 | 25.9 | 53.2 | 44.6 | 37.3 | 41 | 20 | 26.6 | 20.3 |  |  |  |  |  |

Further lines, with some results ahead:

| IC50 (SW-620) [µM] | IC50 (A549) [µM] | IC50 (HepG2) [µM] | IC50 (SMMC-7721 [1]) [µM] | IC50 (PC-3) [µM] | IC50 (HeLa) [µM] | IC50 (MCF7) [µM] | SMILES | IC50 (KYSE-150 cell line) [µM] | Activity (SMMC-7721 [2]) [%] | Activity (SMMC-7721 [3]) [g] | Activity (SMMC-7721 [4]) | Activity (SMMC-7721 [5]) | solubility [6] [µM] |
| --- | --- | --- | --- | --- | --- | --- | --- | --- | --- | --- | --- | --- | --- |
| 35.8 | > 100 | > 100 | 68.5 | > 100 | 40.4 | > 100 | C=C(C)[C@@H]1CC[C@]2(C(=O)OC)CC[C@]3(C)[C@H](CC[C@@H]4[C@@]5(C)C[C@@H](Cc6cn([C@]7(CO)O[C@@H](n8ccc(N)nc8=O)[C@H](O)[C@@H]7O)nn6)C(=O)C(C)(C)[C@@H]5CC[C@]43C)[C@@H]12 | 68.7 |  |  |  |  |  |
| > 100 | > 100 | > 100 | > 100 | > 100 | > 100 | > 100 | C=C(C)[C@@H]1CC[C@]2(C(=O)O)CC[C@]3(C)[C@H](CC[C@@H]4[C@@]5(C)C[C@@H](Cc6cn([C@]7(CO)O[C@@H](n8ccc(N)nc8=O)[C@@H](F)[C@@H]7O)nn6)[C@H](O)C(C)(C)[C@@H]5CC[C@]43C)[C@@H]12 | > 100 |  |  |  |  |  |
| 8.75 | 41.2 | 19.5 | 32.7 | 18.1 | 20.6 | 39.4 | C=C(C)[C@@H]1CC[C@]2(C(=O)OC)CC[C@]3(C)[C@H](CC[C@@H]4[C@@]5(C)C[C@@H](Cc6cn([C@H]7C[C@H](n8cc(C)c(O)nc8=O)O[C@@H]7CO)nn6)[C@H](O)C(C)(C)[C@@H]5CC[C@]43C)[C@@H]12 | 7.82 |  |  |  |  |  |
| 31.2 | > 100 | 69.9 | 52.7 | > 100 | 28.2 | 61.4 | C=C(C)[C@@H]1CC[C@]2(C(=O)OC)CC[C@]3(C)[C@H](CC[C@@H]4[C@@]5(C)C[C@@H](Cc6cn([C@]7(CO)O[C@@H](n8ccc(N)nc8=O)[C@@H](F)[C@@H]7O)nn6)C(=O)C(C)(C)[C@@H]5CC[C@]43C)[C@@H]12 | 19.2 |  |  |  |  |  |
| > 100 | > 100 | > 100 | > 100 | > 100 | > 100 | > 100 | C=C(C)[C@@H]1CC[C@]2(C(=O)O)CC[C@]3(C)[C@H](CC[C@@H]4[C@@]5(C)C[C@@H](Cc6cn([C@]7(CO)O[C@@H](n8ccc(O)nc8=O)[C@@H](F)[C@@H]7O)nn6)[C@H](O)C(C)(C)[C@@H]5CC[C@]43C)[C@@H]12 | > 100 |  |  |  |  |  |
| 17.5 | 64.4 | 38.4 | 15 | 26.6 | 16.4 | 7.01 | C=C(C)[C@@H]1CC[C@]2(C(=O)O)CC[C@]3(C)[C@H](CC[C@@H]4[C@@]5(C)C[C@@H](Cc6cn([C@H]7C[C@H](n8cc(C)c(O)nc8=O)O[C@@H]7CO)nn6)[C@H](O)C(C)(C)[C@@H]5CC[C@]43C)[C@@H]12 | 7.53 |  |  |  |  |  |
